≈ marks a conversion by molar mass, not a printed value. Numbered stars: 1 amine (or outer) side, 2 acyl side, 3 side chain; on linkers, the order of the positions; unused ones are H or OH. Bridge positions count the residues as written; N and C are the ends. Square brackets hold non-standard residues; d marks the D form. Peptide text beside a SMILES is read from it. * marks the point of attachment. X1 = O=C1C[C@@H](C(=O)[*:2])N([*:1])C[C@H]1CS[C@@H]1CN2CCC1CC2; NMePhe(4-NMe2) = CN[C@@H](Cc1ccc(N(C)C)cc1)C(=O)O; Picolinoyl(3-OH) = O=C(c1ncccc1O)*; Phg = N[C@H](C(=O)O)c1ccccc1; dAbu = CC[C@@H](N)C(=O)O
Key:
Staphylococcus aureus [1] = assay: Minimum inhibitory concentration against methicillin susceptible Staphylococcus aureus; format: functional
Mus musculus [2] = assay: Protection of mice infected with MRSA-32 cell suspension after oral administration of compound; format: functional
physchem [3] = assay: physchem
physchem [4] = conditions: octanol/water, pH 2
physchem [5] = assay: physchem; remark: listed apart in the source
physchem [6] = conditions: octanol/water, pH 7.4
Staphylococcus aureus [7] = assay: Minimum inhibitory concentration against methicillin susceptible Staphylococcus aureus after esterase action in rat serum; format: functional
Staphylococcus aureus [8] = assay: Minimum inhibitory concentration against methicillin susceptible Staphylococcus aureus before esterase action in rat serum; format: functional
Staphylococcus aureus [9] = assay: Minimum inhibitory concentration against vancomycin intermediate Staphylococcus aureus MU 3; format: functional
Staphylococcus aureus [10] = assay: microbe, parasite or virus in culture
Staphylococcus aureus [11] = assay: microbe, parasite or virus in culture; remark: listed apart in the source
Staphylococcus aureus [12] = assay: Minimum inhibitory concentration against vancomycin-resistant Staphylococcus aureus (Hershey); format: functional
Staphylococcus aureus [13] = assay: microbe, parasite or virus in culture; remark: listed apart in the source
Staphylococcus aureus [14] = assay: Minimum inhibitory concentration against vancomycin intermediate Staphylococcus aureus MU 50; format: functional
Rattus norvegicus = assay: Amount of drug at which at 14 days of daily administration produced no venous blockage or phlebitis in rats; format: functional
Mus musculus [15] = assay: Efficacy against mice infected with MRSA-32 upon s.c. administration; format: functional; conditions: MRSA-32, sc
Mus musculus [16] = assay: Efficacy against mice infected with MRSA-33 upon s.c. administration; format: functional; conditions: sc
Mus musculus [17] = assay: Efficacy against mice infected with Staphylococcus aureus ATCC 25923 upon s.c. administration; format: functional; conditions: sc
[18] = Staphylococcus aureus, read-out: MIC
[19] = Mus musculus, MRSA-32, po, read-out: ED50

Compound `C[C@H]1CCc2c(N3CCC(O)CC3)c(F)cc3c(=O)c(C(=O)O)cn1c23.NCCCC[C@H](N)C(=O)O` has an MIC (Staphylococcus aureus [1]; [18]) of 0.03 µg/mL and an ED50 (Mus musculus [2]; [19]) of over 100 mg/kg.
`C[C@@H]1CN(c2c(F)c(N)c3c(=O)c(C(=O)O)cn(C4CC4)c3c2F)C[C@H](C)N1` [SPARFLOXACIN] showed a pKa (physchem [3]) of 6.43, a logD (physchem [4]) of -0.86 and a pKa (physchem [5]) of 9.38. The logD (physchem [6]) was -0.02.
With `C[C@H]1CCc2c(N3CCC(O)CC3)c(F)cc3c(=O)c(C(=O)OC4CCN(C)CC4)cn1c23` the MIC (Staphylococcus aureus [7]) was 1 µg/mL (≈ 2.19 µM), the ED50 (Mus musculus [2]; [19]) was over 100 mg/kg and the MIC (Staphylococcus aureus [8]) was 2 µg/mL (≈ 4.37 µM).
`CCCCCCCCCC(=O)N[C@@H](Cc1c[nH]c2ccccc12)C(=O)N[C@H](CC(N)=O)C(=O)N[C@@H](CC(=O)O)C(=O)N[C@@H]1C(=O)NCC(=O)N[C@@H](CCCN)C(=O)N[C@@H](CC(=O)O)C(=O)N[C@H](C)C(=O)N[C@@H](CC(=O)O)C(=O)NCC(=O)N[C@H](CO)C(=O)N[C@@H]([C@H](C)CC(=O)O)C(=O)N[C@@H](CC(=O)c2ccccc2N)C(=O)O[C@@H]1C` showed an MIC (Staphylococcus aureus [9]) of 0.25 µg/mL (≈ 0.154 µM), an MIC (Staphylococcus aureus [10]) of 0.25 µg/mL (≈ 0.154 µM) and an MIC (Staphylococcus aureus [11]) of 250 µg/mL (≈ 154 µM). For the same compound, the MIC (Staphylococcus aureus [12]) was 0.5 µg/mL (≈ 0.309 µM), the MIC (Staphylococcus aureus [13]) was 0.25 µg/mL (≈ 0.154 µM) and the MIC (Staphylococcus aureus [14]) was 0.5 µg/mL (≈ 0.309 µM).
Compound `C[C@H]1CCc2c(N3CCC(OC(=O)[C@H](CCC/N=C(\N)N[N+](=O)[O-])NC(=O)[C@@H](N)CCC/N=C(\N)N[N+](=O)[O-])CC3)c(F)cc3c(=O)c(C(=O)O)cn1c23.O=C(O)C(F)(F)F` has an MIC (Staphylococcus aureus [7]) of 0.12 µg/mL, an ED50 (Mus musculus [2]; [19]) of over 75 mg/kg and an MIC (Staphylococcus aureus [8]) of 0.5 µg/mL.
`C[C@H]1CCc2c(N3CCC(O)CC3)c(F)cc3c(=O)c(C(=O)[O-])cn1c23.[K+]` gave an MIC (Staphylococcus aureus [1]; [18]) of 0.03 µg/mL and an ED50 (Mus musculus [2]; [19]) of over 100 mg/kg.
Compound `C[C@H]1CCc2c(N3CCC(OC(=O)C(C)(C)C)CC3)c(F)cc3c(=O)c(C(=O)OCOC(=O)C(C)(C)C)cn1c23` has an MIC (Staphylococcus aureus [7]) of over 16 µg/mL, an ED50 (Mus musculus [2]; [19]) of over 150 mg/kg and an MIC (Staphylococcus aureus [8]) of over 16 µg/mL.
Work on `C[C@H]1CCc2c(N3CCC(O)CC3)c(F)cc3c(=O)c(C(=O)O)cn1c23.N=C(N)NCCC[C@H](N)C(=O)O` (stereo in doubt; 20) yielded an MIC (Staphylococcus aureus [1]) of 0.03 µg/mL and an ED50 (Mus musculus [2]) of over 100 mg/kg.
For `C[C@H]1CCc2c(N3CCC(O)CC3)c(F)cc3c(=O)c(C(=O)O)cn1c23.N=C(N)NCCC[C@H](N)C(=O)O` (stereo in doubt; 19), the MIC (Staphylococcus aureus [1]; [18]) was 0.03 µg/mL and the ED50 (Mus musculus [2]; [19]) was 90.3 mg/kg.
`C[C@H]1CCc2c(N3CCC(O)CC3)c(F)cc3c(=O)c(C(=O)[O-])cn1c23.[Na+]` gave an NOEL (Rattus norvegicus) of under 250 mg/kg, an MIC (Staphylococcus aureus [1]; [18]) of 0.03 µg/mL and an ED50 (Mus musculus [2]; [19]) of 60 mg/kg.
In the case of `COC(=O)c1cn2c3c(c(N4CCC(O)CC4)c(F)cc3c1=O)CC[C@@H]2C`, the MIC (Staphylococcus aureus [7]) is reported as 1 µg/mL (≈ 2.67 µM), the ED50 (Mus musculus [2]; [19]) is reported as over 100 mg/kg and the MIC (Staphylococcus aureus [8]) is reported as 8 µg/mL (≈ 21.4 µM).
Work on `C[C@H]1CCc2c(N3CCC(OC(=O)[C@@H](N)CCC/N=C(\N)N[N+](=O)[O-])CC3)c(F)cc3c(=O)c(C(=O)O)cn1c23.O=C(O)C(F)(F)F` yielded an MIC (Staphylococcus aureus [7]) of 0.06 µg/mL, an ED50 (Mus musculus [2]; [19]) of over 75 mg/kg and an MIC (Staphylococcus aureus [8]) of 0.25 µg/mL.
Work on `CCn1cc(C(=O)O)c(=O)c2cc(F)c(N3CCN(C)CC3)cc21` [PEFLOXACIN] yielded a pKa (physchem [3]) of 6.15 and a pKa (physchem [5]) of 9.97.
Work on `CC(=O)NC[C@H]1CN(c2ccc(N3CCOCC3)c(F)c2)C(=O)O1` [LINEZOLID] yielded an ED50 (Mus musculus [15]) of 1.14 mg/kg, an ED50 (Mus musculus [16]) of 3.1 mg/kg and an ED50 (Mus musculus [17]) of 2.4 mg/kg.
In the case of `CCN(CC)CCS(=O)(=O)[C@@H]1CCN2C(=O)c3coc(n3)CC(=O)C[C@H](O)/C=C(C)/C=C/CNC(=O)/C=C/[C@@H](C)[C@@H](C(C)C)OC(=O)[C@@H]12.CC[C@H]1NC(=O)[C@@H](NC(=O)c2ncccc2O)[C@@H](C)OC(=O)[C@H](c2ccccc2)NC(=O)[C@@H]2CC(=O)[C@H](CS[C@@H]3CN4CCC3CC4)CN2C(=O)[C@H](Cc2ccc(N(C)C)cc2)N(C)C(=O)[C@@H]2CCCN2C1=O` [QUINUPRISTIN/DALFOPRISTIN] ({Picolinoyl(3-OH)}-T[dAbu]P[NMePhe(4-NMe2)][X1][Phg]; ester 1-C), the MIC (Staphylococcus aureus [9]) is reported as 1 µg/mL, the MIC (Staphylococcus aureus [10]) is reported as 0.5 µg/mL and the MIC (Staphylococcus aureus [11]) is reported as 1 µg/mL. For the same compound, the MIC (Staphylococcus aureus [12]) was 1 µg/mL, the MIC (Staphylococcus aureus [13]) was 1 µg/mL and the MIC (Staphylococcus aureus [14]) was 1 µg/mL.

Reference: ChEMBL document CHEMBL1141145, “A chiral benzoquinolizine-2-carboxylic acid arginine salt active against vancomycin-resistant Staphylococcus aureus” (J Med Chem, 2005)
